Laboratory results as given in patent publication US9493446B2, “Orexin receptor antagonists which are [ortho bi-(hetero-)aryl]-[2-(meta bi-(hetero-)aryl)-pyrrolidin-1-yl]-methanone derivatives” (Actelion Pharmaceuticals Ltd, priority 2012, dated 2016).
Read-outs that look alike come from different tables or passages of the source.

Key:
human orexin-2 receptor = human orexin-2 receptor (Homo sapiens (Human), UniProt O43614); assay: Intracellular calcium measurement (FLIPR), CHO cells expressing human orexin-2 receptor, 3 nM orexin-A; type: cell-based; conditions: read-out: IC50 OX2
Method in brief: (§1)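 HBSS buffer with 0.1% BSA, NaHCO3 and 20 mM HEPES carries both compounds and agonist. Dye: fluo-4 AM (3 μM) with 5 mM probenecid. Compound exposure 120 min; peak signal scored against uninhibited orexin-A response.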

orexin-1 = orexin-1 (Homo sapiens (Human), UniProt O43613); assay: Intracellular calcium measurement (FLIPR), CHO cells expressing human orexin-1 receptor, 3 nM orexin-A; type: cell-based; conditions: read-out: IC50 OX1
Method in brief: as §1

[1] = CHO cells expressing human orexin-2 receptor, FLIPR, 3 nM orexin-A, geometric mean if determined several times
[2] = CHO cells expressing human orexin-1 receptor, FLIPR, 3 nM orexin-A, geometric mean if determined several times

Sequence of orexin-1 (O43613 whole entry): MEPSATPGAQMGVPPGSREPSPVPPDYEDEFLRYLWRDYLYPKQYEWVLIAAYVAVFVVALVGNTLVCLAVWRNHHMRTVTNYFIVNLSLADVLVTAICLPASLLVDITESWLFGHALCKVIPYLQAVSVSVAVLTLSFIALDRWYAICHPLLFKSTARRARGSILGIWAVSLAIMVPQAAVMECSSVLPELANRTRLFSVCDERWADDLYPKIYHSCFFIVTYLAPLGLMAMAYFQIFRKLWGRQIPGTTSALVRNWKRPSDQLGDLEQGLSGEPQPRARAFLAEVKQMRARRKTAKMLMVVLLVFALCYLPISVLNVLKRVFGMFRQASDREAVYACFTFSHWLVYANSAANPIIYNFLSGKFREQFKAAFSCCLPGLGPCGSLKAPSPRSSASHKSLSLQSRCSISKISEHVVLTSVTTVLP
Sequence of human orexin-2 receptor (O43614 whole entry): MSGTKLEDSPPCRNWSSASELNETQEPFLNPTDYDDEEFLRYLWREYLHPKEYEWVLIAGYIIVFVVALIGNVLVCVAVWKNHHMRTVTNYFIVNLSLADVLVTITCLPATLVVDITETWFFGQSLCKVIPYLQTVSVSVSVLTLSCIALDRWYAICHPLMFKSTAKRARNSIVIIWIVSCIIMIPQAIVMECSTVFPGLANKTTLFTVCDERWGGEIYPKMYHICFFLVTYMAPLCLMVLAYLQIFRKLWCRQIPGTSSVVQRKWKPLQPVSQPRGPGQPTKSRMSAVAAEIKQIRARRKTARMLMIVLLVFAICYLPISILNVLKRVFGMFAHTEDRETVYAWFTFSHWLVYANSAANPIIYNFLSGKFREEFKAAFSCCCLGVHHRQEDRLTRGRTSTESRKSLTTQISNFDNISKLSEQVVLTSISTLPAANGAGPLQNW

Row | Structure (SMILES) | IC50 (human orexin-2 receptor; [1]) [nM] | IC50 (orexin-1; [2]) [nM] | IC50 (orexin-1) [nM] | IC50 (human orexin-2 receptor) [nM]
1 | Cc1c(Cl)cccc1-c1noc([C@@H]2CCCN2C(=O)c2cc(OC(F)(F)F)ccc2-n2nccn2)n1 [compound 99] | 614 | – | 895 | –
2 | Cc1ccc(C)c(-c2nc([C@@H]3CCCN3C(=O)c3ccc(Cl)cc3-n3nccn3)no2)c1 [compound 399] | 10 | – | 77 | –
3 | COc1ccc(-n2nccn2)c(C(=O)N2CCC[C@H]2c2nc(-c3ccccc3OC(F)(F)F)no2)c1 [compound 151, (5-Methoxy-2-[1,2,3]triazol-2-yl-phenyl)-{(S)-2-[3-(2-trifluoromethoxy-phenyl)-[1,2,4]oxadiazol-5-yl]-pyrrolidin-1-yl}-methanone] | 27 | 27 | – | –
4 | Cc1c(F)cccc1-c1nc([C@@H]2CCCN2C(=O)c2cc(Cl)ccc2-n2nccn2)no1 [compound 342] | – | 152 | – | 13
5 | Cc1c(Cl)cccc1-c1noc([C@@H]2CCCN2C(=O)c2cccnc2-c2ccccn2)n1 [compound 107] | 79 | 1040 | – | –
6 | C[C@@]1(c2nc(-c3ccccc3)no2)CCCN1C(=O)c1ncsc1-c1cccc(Cl)c1 [compound 538] | 2810 | 941 | – | –
7 | COc1cc(C)cc(-c2nc([C@@H]3CCCN3C(=O)c3cc(OC)c(Cl)cc3-n3nccn3)no2)c1 [compound 352] | – | 19 | – | 4
8 | Cc1ccc(-n2nccn2)c(C(=O)N2CCC[C@@]2(C)c2nc(-c3ccccc3)no2)c1 [Example 540, [(S)-2-Methyl-2-(3-phenyl-[1,2,4]oxadiazol-5-yl)-pyrrolidin-1-yl]-(5-methyl-2-[1,2,3]triazol-2-yl-phenyl)-methanone] | 581 | 211 | – | –
9 | COCc1ccccc1-c1noc([C@@H]2CCCN2C(=O)c2cc(C)ccc2-n2nccn2)n1 [compound 44, {(S)-2-[3-(2-Methoxymethyl-phenyl)-[1,2,4]oxadiazol-5-yl]-pyrrolidin-1-yl}-(5-methyl-2-[1,2,3]triazol-2-yl-phenyl)-methanone] | 14 | 110 | – | –
10 | CCc1ccccc1-c1nc([C@@H]2CCCN2C(=O)c2cc(Cl)ccc2-n2nccn2)no1 [compound 395] | – | – | 31 | 10
11 | Cc1c(Cl)cccc1-c1noc([C@@H]2CCCN2C(=O)c2cccc(F)c2-n2cccn2)n1 [compound 113] | 146 | 1200 | – | –
12 | CCOc1c(F)cccc1-c1nnc([C@@H]2CCCN2C(=O)c2cc(C)ccc2-n2nccn2)o1 [Example 449, {(S)-2-[5-(2-Ethoxy-3-fluoro-phenyl)-[1,3,4]oxadiazol-2-yl]-pyrrolidin-1-yl}-(5-methyl-2-[1,2,3]triazol-2-yl-phenyl)-methanone] | 236 | 280 | – | –
13 | Cc1ccc(-n2nccn2)c(C(=O)N2CCC[C@H]2c2nc(-c3ccccc3OC(F)(F)F)no2)c1 [compound 17, (5-Methyl-2-[1,2,3]triazol-2-yl-phenyl)-{(S)-2-[3-(2-trifluoromethoxy-phenyl)-[1,2,4]oxadiazol-5-yl]-pyrrolidin-1-yl}-methanone] | 5 | 8 | – | –
14 | CCOc1ncccc1-c1noc([C@@H]2CCCN2C(=O)c2cc(OC)c(Cl)cc2-n2nccn2)n1 [compound 284] | 5 | – | 32 | –
15 | Cc1ccc(-n2nccn2)c(C(=O)N2CCC[C@H]2c2nc(-c3cccc4c3OCCO4)no2)c1 [compound 38, {(S)-2-[3-(2,3-Dihydro-benzo[1,4]dioxin-5-yl)-[1,2,4]oxadiazol-5-yl]-pyrrolidin-1-yl}-(5-methyl-2-[1,2,3]triazol-2-yl-phenyl)-methanone] | 12 | 23 | – | –
16 | Cc1ccc(-n2nccn2)c(C(=O)N2CCC[C@@]2(C)c2nnc(-c3ccccc3OC(F)(F)F)[nH]2)c1 [Example 542, (5-Methyl-2-[1,2,3]triazol-2-yl-phenyl)-{(S)-2-methyl-2-[5-(2-trifluoromethoxy-phenyl)-4H-[1,2,4]triazol-3-yl]-pyrrolidin-1-yl}-methanone] | 28 | 33 | – | –
17 | CCOc1c(F)cccc1-c1noc([C@@H]2CCCN2C(=O)c2cc(OC)c(Cl)cc2-n2nccn2)n1 [compound 283] | 7 | – | 34 | –
18 | O=C(c1cc(C(F)(F)F)ccc1-n1nccn1)N1CCC[C@H]1c1nc(-c2ccccc2OC(F)(F)F)no1 [compound 148, (2-[1,2,3]Triazol-2-yl-5-trifluoromethyl-phenyl)-{(S)-2-[3-(2-trifluoromethoxy-phenyl)-[1,2,4]oxadiazol-5-yl]-pyrrolidin-1-yl}-methanone] | 285 | 241 | – | –
19 | Cc1ccc(-n2nccn2)c(C(=O)N2CCC[C@H]2c2nc(-c3ccc4c(c3)OC(F)(F)O4)no2)c1 [compound 19, {(S)-2-[3-(2,2-Difluoro-benzo[1,3]dioxol-5-yl)-[1,2,4]oxadiazol-5-yl]-pyrrolidin-1-yl}-(5-methyl-2-[1,2,3]triazol-2-yl-phenyl)-methanone] | 652 | 1860 | – | –
20 | Cc1ccc(-n2nccn2)c(C(=O)N2CCC[C@H]2c2nc(-c3ccccc3Cl)no2)n1 [compound 242] | 1440 | 4360 | – | –

More lines, main results first:

Row | IC50 (human orexin-2 receptor; [1]) [nM] | IC50 (orexin-1; [2]) [nM] | Structure (SMILES) | IC50 (orexin-1) [nM] | IC50 (human orexin-2 receptor) [nM]
21 | 35 | 331 | COc1ccc(C)cc1-c1nc([C@@H]2CCCN2C(=O)c2ccc(C)cc2-n2nccn2)no1 [compound 414, {(S)-2-[5-(2-Methoxy-5-methyl-phenyl)-[1,2,4]oxadiazol-3-yl]-pyrrolidin-1-yl}-(4-methyl-2-[1,2,3]triazol-2-yl-phenyl)-methanone] | – | –
22 | 13 | 49 | COc1cc(C(=O)N2CCC[C@H]2c2cc(-c3ccccc3OC(F)(F)F)on2)c(-n2nccn2)cc1C [compound 436, (5-Methoxy-4-methyl-2-[1,2,3]triazol-2-yl-phenyl)-{(S)-2-[5-(2-trifluoromethoxy-phenyl)-isoxazol-3-yl]-pyrrolidin-1-yl}-methanone] | – | –
23 | 70 | 174 | COc1cc(C(=O)N2CCC[C@H]2c2nc(-c3ccccc3OC(F)(F)F)no2)c(-n2nccn2)cc1F [compound 174, (4-Fluoro-5-methoxy-2-[1,2,3]triazol-2-yl-phenyl)-{(S)-2-[3-(2-trifluoromethoxy-phenyl)-[1,2,4]oxadiazol-5-yl]-pyrrolidin-1-yl}-methanone] | – | –
24 | 94 | 68 | CCOc1ncccc1-c1nnc([C@@H]2CCCN2C(=O)c2ccc(C)cc2-n2nccn2)[nH]1 [compound 482, {(S)-2-[5-(2-Ethoxy-pyridin-3-yl)-4H-[1,2,4]triazol-3-yl]-pyrrolidin-1-yl}-(4-methyl-2-[1,2,3]triazol-2-yl-phenyl)-methanone] | – | –
25 | 71 | 88 | Cc1ccc(-n2nccn2)c(C(=O)N2CCC[C@H]2c2nc(-c3ccccc3OC(F)(F)F)no2)n1 [compound 159, (6-Methyl-3-[1,2,3]triazol-2-yl-pyridin-2-yl)-{(S)-2-[3-(2-trifluoromethoxy-phenyl)-[1,2,4]oxadiazol-5-yl]-pyrrolidin-1-yl}-methanone] | – | –
26 | 52 | 666 | CCOc1c(F)cccc1-c1noc([C@@H]2CCCN2C(=O)c2ccccc2-n2nccn2)n1 [compound 288, {(S)-2-[3-(2-Ethoxy-3-fluoro-phenyl)-[1,2,4]oxadiazol-5-yl]-pyrrolidin-1-yl}-(2-[1,2,3]triazol-2-yl-phenyl)-methanone] | – | –
27 | 14 | 140 | COc1ccc(C)c(-c2nc([C@@H]3CCCN3C(=O)c3cc(C)ccc3-n3nccn3)no2)c1 [compound 410, {(S)-2-[5-(5-Methoxy-2-methyl-phenyl)-[1,2,4]oxadiazol-3-yl]-pyrrolidin-1-yl}-(5-methyl-2-[1,2,3]triazol-2-yl-phenyl)-methanone] | – | –
28 | 126 | 183 | Cc1ccc(C(=O)N2CCC[C@H]2c2nc(-c3ccccc3C(F)(F)F)no2)c(-n2nccn2)c1 [compound 180, (4-Methyl-2-[1,2,3]triazol-2-yl-phenyl)-{(S)-2-[3-(2-trifluoromethyl-phenyl)-[1,2,4]oxadiazol-5-yl]-pyrrolidin-1-yl}-methanone] | – | –
29 | 35 | 84 | COc1cc(C(=O)N2CCC[C@H]2c2nnc(-c3ccccc3OC)[nH]2)c(-n2nccn2)cc1C [compound 468, (5-Methoxy-4-methyl-2-[1,2,3]triazol-2-yl-phenyl)-{(S)-2-[5-(2-methoxy-phenyl)-4H-[1,2,4]triazol-3-yl]-pyrrolidin-1-yl}-methanone] | – | –
30 | 15 | 66 | COc1cc(C(=O)N2CCC[C@H]2c2nc(-c3ccccc3OC)no2)c(-n2nccn2)cc1C [compound 231, (5-Methoxy-4-methyl-2-[1,2,3]triazol-2-yl-phenyl)-{(S)-2-[3-(2-methoxy-phenyl)-[1,2,4]oxadiazol-5-yl]-pyrrolidin-1-yl}-methanone] | – | –
31 | 63 | 392 | CCOc1ccccc1-c1noc([C@@H]2CCCN2C(=O)c2ccccc2-n2nccn2)n1 [compound 260, {(S)-2-[3-(2-Ethoxy-phenyl)-[1,2,4]oxadiazol-5-yl]-pyrrolidin-1-yl}-(2-[1,2,3]triazol-2-yl-phenyl)-methanone] | – | –
32 | 116 | 132 | O=C(c1ccc(C(F)(F)F)cc1-n1nccn1)N1CCC[C@H]1c1nc(-c2ccccc2OC(F)(F)F)no1 [compound 173, (2-[1,2,3]Triazol-2-yl-4-trifluoromethyl-phenyl)-{(S)-2-[3-(2-trifluoromethoxy-phenyl)-[1,2,4]oxadiazol-5-yl]-pyrrolidin-1-yl}-methanone] | – | –
33 | 64 | 31 | Cc1ccc(-c2ccccc2)c(C(=O)N2CCC[C@@]2(C)c2nnc(-c3ccccc3OC(F)(F)F)[nH]2)c1 [compound 549, (4-Methyl-biphenyl-2-yl)-{(S)-2-methyl-2-[5-(2-trifluoromethoxy-phenyl)-4H-[1,2,4]triazol-3-yl]-pyrrolidin-1-yl}-methanone] | – | –
